Experimental findings from paper PMC3004048 (Biochemistry, 2009) are described below.

One may read the Kd as the constant that tells how readily two partners part at equilibrium. A lower Kd goes with tighter binding.

Each structure is given as a SMILES string. Counter-ions that a name gives are not always drawn.

The first experiment deals with T1, Lot6p (Saccharomyces cerevisiae, UniProt Q07923).
T1 sequence (Q07923 1-191): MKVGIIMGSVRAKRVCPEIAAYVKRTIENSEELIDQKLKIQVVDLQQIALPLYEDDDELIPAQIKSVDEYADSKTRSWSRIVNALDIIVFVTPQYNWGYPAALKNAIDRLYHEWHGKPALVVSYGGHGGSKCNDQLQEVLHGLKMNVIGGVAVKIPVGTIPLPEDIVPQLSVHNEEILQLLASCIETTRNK
Assay: not given
It counts as biochemical.
As to `NC(=O)C1=CN([C@@H]2O[C@H](COP(=O)(O)OP(=O)(O)OC[C@H]3O[C@@H](n4cnc5c(N)ncnc54)[C@H](O)[C@@H]3O)[C@@H](O)[C@H]2O)C=CC1` [NADH], the dissociation constant Kd was found to be 9.6 ± 2.4 mM.

Turning to `NC(=O)C1=CN([C@@H]2O[C@H](COP(=O)(O)OP(=O)(O)OC[C@H]3O[C@@H](n4cnc5c(N)ncnc54)[C@H](OP(=O)(O)O)[C@@H]3O)[C@@H](O)[C@H]2O)C=CC1` [NADPH], the dissociation constant (Kd) came to 12.5 ± 1.1 mM.

In another experiment the target is T1, Lot6p. Put plainly: stopped-flow oxidation of reduced enzyme at […] nm. It counts as biochemical.
Regarding `O=C1C=C(S(=O)(=O)O)c2ccccc2C1=O` [1,2-Napthoquinone-4-sulfonic acid, Na salt], the “k2” value came out at 142000 M⁻¹ s⁻¹.

Take `O=C1C=CC(=O)C=C1` [1,4-Benzoquinone]: the “k2” value amounted to 1.03e+07 M⁻¹ s⁻¹.

With `O=C1C=C(O)C(=O)c2ccccc21` [2-Hydroxy-1,4-naphthoquinone], the “k2” value was found to be 7580 M⁻¹ s⁻¹.

Consider `COC1=C(OC)C(=O)C(C)=CC1=O` [Coenzyme Q0], for which the “k2” value came to 6.45e+06 M⁻¹ s⁻¹.

For `CC1=CC(=O)c2ccccc2C1=O` [Menadione], the “k2” value worked out at 677000 M⁻¹ s⁻¹.

Regarding `O=C1c2ccccc2C(=O)c2c1cccc2S(=O)(=O)O` [Na-anthraquinone, α-sulfonate], the “k2” value worked out at 1810 M⁻¹ s⁻¹.
